Data on 13 molecules can be found in patent publication US7825141B2, “Epothilone derivatives” (Novartis AG, priority 2004, dated 2010).

A word on the pIC50: it is the negative decadic logarithm of the IC50, by convention in mol/L.

pIC50: −log10 of the molar value. Where “and” joins values, the source holds several entries; their conditions need not be identical. Equal values may be shown once.

Data set [1] deals with Human KB-31 epidermoid carcinoma cells. The data set is described as follows: Proliferation inhibition of KB-31 cells (methylene blue staining). It counts as cell-based. To be noted: KB-31 cell line, four days incubation with compound, repeated lines are separate determinations. The procedure: (§1) Stock solutions of the test compound of formula I 10 mM) in DMSO are prepared and stored at −20° C. Human KB-31 and (multidrug-resistant, P-gp 170 overexpressing) KB-8511 epidermoid carcinoma cells are from Dr. M. Baker, Roswell Park Memorial Institute (Buffalo, N.Y., USA) (for description see also Akiyama et al., Somat. Cell. Mol. Genetics 11, 117-126 (1985) und Fojo A., et al., Cancer Res. 45, 3002-3007 (1985)—KB-31 und KB-851 I both are derivatives of the KB-cell line (American Type Culture Collection) and are human epidermoid carcinoma cells. KB-31 cells can be cultivated in mono-layers using calf serum (M.A. Bio-products), L-glutamine (Flow), penicillin (50 Units/ml) und streptomycin (50 μg/ml (Flow); they then grow with a doubling rate of about 22 hours, and the relative efficiency of plating them out lies at about 60%. […] The cells are incubated at 37° C. in an incubator with 5% V/V CO2 and at 80% relative atmospheric humidity in MEM Alpha-medium which contains ribonucleosides und desoxyribonucleosides (Gibco BRL), complemented with 10 IU Penicillin, 10 μg/ml Streptomycin and 5% fetal calf serum. The cells are spread in an amount of 1.5×10^3 cells/well in 96-well-microtiter plates and incubated overnight. Serial dilutions of the test compounds in culture medium are added at day 1. The plates are then incubated for an additional period of four days, after which the cells are fixed using 3.3% v/v glutaraldehyde washed with water and finally stained with 0.05% w/v methylene blue. After washing again, the stain is eluted with 3% HCl and the optical density at 665 nm is measured with a SpectraMax 340 (Molecular Devices, Sunnyvale, Calif.). IC50-values are determined by mathematically fitting the data to curves using the SoftPro2.0 program (Molecular Devices, Sunnyvale, Calif.) and the formula […]/[(OD control)−(OD start)]×100.
(§2) The IC50 is defined as the concentration of a test compound at the end of the incubation period that leads to 50% of the number of cells in comparison to controls without test compound (concentration at halfmaximal inhibition of cell growth).
(§3) Proliferation inhibition (IC50) of epothilone derivatives (Examples 1-16) towards KB-31 and KB-8511 cell lines. Method as described above.

The test system of data set [2] is (multidrug-resistant, P-gp 170 overexpressing) KB-8511 epidermoid carcinoma cells. Briefly: Proliferation inhibition of KB-8511 cells (methylene blue staining). It is filed as cell-based, human. To be noted: KB-8511 cell line (multidrug-resistant, P-gp 170 overexpressing), four days incubation with compound, repeated lines are separate determinations. The procedure: as §1, §2, §3

`Cc1nc2cc([C@@H]3C[C@@H]4C[C@@H]4CCC[C@H](C)[C@H](O)[C@@H](C)C(=O)C(C)(C)[C@@H](O)CC(=O)O3)ccc2n1C` (stereo in doubt) [Example 15, 3-(1,2-Dimethyl-1H-benzoimidazol-5-yl)-7,11-dihydroxy-8,8,10,12-tetramethyl-4-oxa-bicyclo[14.1.0]heptadecane-5,9-dione]: the pIC50 was 9.33 in data set [1] (Homo sapiens, KB 3-1, 96 h) and 9.00 in data set [2] (Homo sapiens, 96 h).

Take `Cc1nc2cc([C@@H]3C/C=C/CCC[C@H](C)[C@H](O)[C@@H](C)C(=O)C(C)(C)/C=C/C(=O)O3)ccc2n1C` [Example 13, (3E,13E)-(7R,8S,9S,16S)-16-(1,2-Dimethyl-1H-benzoimidazol-5-yl)-8-hydroxy-5,5,7,9-tetramethyl-oxacyclohexadeca-3,13-diene-2,6-dione]: the pIC50 is 6.84 in data set [1] (Homo sapiens, KB 3-1, 96 h); 6.86 and 6.82 in data set [1]; 7.13 in data set [2] (Homo sapiens, 96 h); 7.16 and 7.13 in data set [2].

Consider `Cc1nc2cc([C@@H]3C[C@@H]4O[C@H]4CCC[C@H](C)[C@H](O)[C@@H](C)C(=O)C(C)(C)/C=C/C(=O)O3)ccc2n1C` [Example 14, (E)-(1S,3S,10R,11S,12S,16S)-3-(1,2-Dimethyl-1H-benzoimidazol-5-yl)-11-hydroxy-8,8,10,12-tetramethyl-4,17-dioxa-bicyclo[14.1.0]heptadec-6-ene-5,9-dione], for which the negative-log IC50 (pIC50) in data set [1] (Homo sapiens, KB 3-1, 96 h) is 8.30; in data set [1] it was 8.46; in data set [2] (Homo sapiens, 96 h) it was 7.91; in data set [2] it was 8.00.

Regarding `Cc1nc2cc([C@@H]3C/C=C/CCC[C@H](C)[C@H](O)[C@@H](C)C(=O)C(C)(C)[C@@H](O)CC(=O)O3)ccc2n1C` [Example 11, (E)-(4S,7R,8S,9S,16S)-16-(1,2-Dimethyl-1H-benzoimidazol-5-yl)-4,8-dihydroxy-5,5,7,9-tetramethyl-oxacyclohexadec-13-ene-2,6-dione], the pIC50 in data set [2] (Homo sapiens, 96 h) was 7.60; in data set [2], 7.44 and 7.43.

In the case of `C/C(=C\c1csc(C)n1)[C@@H]1C[C@@H]2O[C@]2(C)CCC[C@H](C)[C@H](O)[C@@H](C)C(=O)C(C)(C)CCC(=O)O1` [Example 2, (1S,3S,10R,11S,12S,16R)-11-Hydroxy-8,8,10,12,16-pentamethyl-3-[(E)-1-methyl-2-(2-methyl-thiazol-4-yl)-vinyl]-4,17-dioxa-bicyclo[14.1.0]heptadecane-5,9-dione], the negative logarithm of the IC50 (pIC50) in data set [1] (Homo sapiens, KB 3-1, 96 h) was 8.29; in data set [2] (Homo sapiens, 96 h), 8.66.

For the molecule `Cc1nc2cc([C@@H]3C/C=C\CCC[C@H](C)[C@H](O)[C@@H](C)C(=O)C(C)(C)CCC(=O)O3)ccc2n1C` [Example 3, 16-(1,2-Dimethyl-1H-benzoimidazol-5-yl)-8-hydroxy-5,5,7,9-tetramethyl-oxacyclohexadec-13-ene-2,6-dione], the pIC50 in data set [1] (Homo sapiens, KB 3-1, 96 h) was 7.26; in data set [1], 7.21; in data set [2] (Homo sapiens, 96 h), 7.30; in data set [2] it was 7.21.

As for `Cc1nc2cc([C@@H]3C[C@@H]4O[C@@H]4CCC[C@H](C)[C@H](O)[C@@H](C)C(=O)C(C)(C)CCC(=O)O3)ccc2n1C` [Example 4, 3-(1,2-Dimethyl-1H-benzoimidazol-5-yl)-11-hydroxy-8,8,10,12-tetramethyl-4,17-dioxa-bicyclo[14.1.0]heptadecane-5,9-dione], the negative logarithm of the IC50 (pIC50) was 8.18 in data set [1] (Homo sapiens, KB 3-1, 96 h); 8.10 and 8.12 in data set [1]; 7.44 in data set [2] (Homo sapiens, 96 h); 7.41 and 7.43 in data set [2].

On to `C/C1=C/C[C@@H](/C(C)=C/c2csc(C)n2)OC(=O)CCC(C)(C)C(=O)[C@H](C)[C@@H](O)[C@@H](C)CCC1` [Example 1, (Z)-(7R,8S,9S,16S)-8-Hydroxy-5,5,7,9,13-pentamethyl-16-[(E)-1-methyl-2-(2-methyl-thiazol-4-yl)-vinyl]-oxacyclohexadec-13-ene-2,6-dione], for which the pIC50 was 6.97 in data set [1] (Homo sapiens, KB 3-1, 96 h) and 7.12 in data set [2] (Homo sapiens, 96 h).

Consider `Cc1nc2cc([C@@H]3C/C=C/CCC[C@H](C)[C@H](O)[C@@H](C)C(=O)C(C)(C)CCC(=O)O3)ccc2n1C` [Example 7, (E)-(7R,8S,9S,16S)-16-(1,2-Dimethyl-1H-benzoimidazol-5-yl)-8-hydroxy-5,5,7,9-tetramethyl-oxacyclohexadec-13-ene-2,6-dione], for which the pIC50 in data set [1] (Homo sapiens, KB 3-1, 96 h) was 7.41; in data set [1] it was 7.38; in data set [2] (Homo sapiens, 96 h), 7.30; in data set [2], 7.30.

As for `Cc1nc2cc([C@@H]3C[C@@H]4O[C@]4(C)CCC[C@H](C)[C@H](O)[C@@H](C)C(=O)C(C)(C)CCC(=O)O3)ccc2n1C` [Example 6, (1S,3S,10R,11S,12S,16R)-3-(1,2-Dimethyl-1H-benzoimidazol-5-yl)-11-hydroxy-8,8,10,12,16-pentamethyl-4,17-dioxa-bicyclo[14.1.0]heptadecane-5,9-dione], the pIC50 in data set [2] (Homo sapiens, 96 h) is above 8.70; in data set [2], 8.79.

As for `Cc1nc2cc([C@@H]3C[C@@H]4O[C@H]4CCC[C@H](C)[C@H](O)[C@@H](C)C(=O)C(C)(C)[C@@H](O)CC(=O)O3)ccc2n1C` [Example 12, (1S,3S,7S,10R,11S,12S,16S)-3-(1,2-Dimethyl-1H-benzoimidazol-5-yl)-7,11-dihydroxy-8,8,10,12-tetramethyl-4,17-dioxa-bicyclo[14.1.0]heptadecane-5,9-dione], the pIC50 in data set [1] (Homo sapiens, KB 3-1, 96 h) was 9.57; in data set [1], 9.62 and 9.64; in data set [2] (Homo sapiens, 96 h), 8.84; in data set [2], 8.78 and 9.02.

Consider `Cc1nc2cc([C@@H]3C[C@@H]4O[C@H]4CCC[C@H](C)[C@H](O)[C@@H](C)C(=O)C(C)(C)CCC(=O)O3)ccc2n1C` [Example 8, (1S,3S,10R,11S,12S,16S)-3-(1,2-Dimethyl-1H-benzoimidazol-5-yl)-11-hydroxy-8,8,10,12-tetramethyl-4,17-dioxa-bicyclo[14.1.0]heptadecane-5,9-dione], for which the pIC50 is 8.56 in data set [1] (Homo sapiens, KB 3-1, 96 h) and 8.23 in data set [2] (Homo sapiens, 96 h).

Regarding `Cc1nc2cc([C@@H]3C[C@@H]4C[C@H]4CCC[C@H](C)[C@H](O)[C@@H](C)C(=O)C(C)(C)[C@@H](O)CC(=O)O3)ccc2n1C` [Example 16, (1S,3S,7S,10R,11S,12S,16R)-3-(1,2-Dimethyl-1H-benzoimidazol-5-yl)-7,11-dihydroxy-8,8,10,12-tetramethyl-4-oxa-bicyclo[14.1.0]heptadecane-5,9-dione], the negative logarithm of the IC50 (pIC50) in data set [1] (Homo sapiens, KB 3-1, 96 h) was 9.83; in data set [2] (Homo sapiens, 96 h) it was 9.96.
